Results on two sequences are retold here after patent US7323541B2, “Polypeptide DNA thereof and use of the same” (Takeda Pharmaceutical Company Limited, priority 2001, dated 2008).

Holding throughout (assay type): cell-based
Experiment [1] concerns the target T1, TGR23-1 expressing CHO cells (Homo sapiens, UniProt Q6W5P4).
T1 construct: the clones having the cDNA of TGR23-1, which is contained in pTB2173, were selected; expressed in transfected cells; host or cells: hamster CHO/dhfr- cells, vector pAKKO-111H (pAKKO-TGR23-1), clones No. 49 and No. 52
T1 sequence (Q6W5P4 1-371): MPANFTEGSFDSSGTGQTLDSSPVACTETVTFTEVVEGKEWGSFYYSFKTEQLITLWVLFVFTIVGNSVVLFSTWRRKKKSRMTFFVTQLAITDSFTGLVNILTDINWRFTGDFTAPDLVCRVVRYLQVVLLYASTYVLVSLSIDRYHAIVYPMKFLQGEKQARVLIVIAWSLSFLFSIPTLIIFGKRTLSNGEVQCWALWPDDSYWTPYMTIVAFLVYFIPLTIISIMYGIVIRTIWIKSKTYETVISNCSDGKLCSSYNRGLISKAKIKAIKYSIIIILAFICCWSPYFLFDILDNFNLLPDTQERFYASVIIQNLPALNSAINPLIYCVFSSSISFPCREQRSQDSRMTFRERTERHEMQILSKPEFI
Put plainly: Intracellular Ca ion concentration increasing activity using FLIPR. The settings on record: variety of concentrations. The method, then: (§1) An enhancing activity of intracellular Ca^2+ release was assayed using FLIPR (Molecular Devices, Inc.). The CHO/TGR23-2 cells prepared in Example 1 and selected in Example 2 were plated on 96-well plate at 3×10^4 cells/well and cultured for 24 hours. A loading buffer was prepared by adding 1 vial of Fluo 3-AM to 10 ml of Hanks' solution (pH7.4) containing 2.5 mM Probenecid and 20 mM HEPES (hereafter, Hanks' solution (pH7.4) containing 2.5 mM Probenecid and 20 mM HEPES may be referred to as a washing buffer). The culture medium was discarded from the culture plate and 100 μl/well of the loading buffer were added to the cells. Then, the cells were incubated for 60 minutes in the incubator. After the loading buffer was removed from the culture plate and the cells were washed with the washing buffer, the plate was put in place of FLIPR. A sample was prepared by adding a sample buffer, which 2 mg/ml BSA and 1 mg/ml CHAPS were added to the washing buffer, to lyophilized product, stirring and treating by ultrasonication for 30 minutes, and transferred to 96-well sample plate. This sample plate was also put in place for assay. The enhancing activity of intracellular Ca^2+ release was measured as an increase of fluorescent intensity, which is raised by addition of the sample. Human TGR23-2 ligand (1-20) obtained in Example 17 was administered to TGR23-1 expressing CHO cells and TGR23-2 expressing CHO cells at a variety of concentrations according to the method described in Example 5, and the increasing activity of intracellular Ca ion concentration was determined using FLIPR. […] Rat TGR23-2 ligand (1-18) prepared by the method described in Example 19 and mouse TGR23-2 ligand (1-20) prepared by the method described in Example 20 were administered to TGR23-1 expressing CHO cells and TGR23-2 expressing CHO cells at a variety of concentrations according to the method described in Example 5, and the increasing activity of intracellular Ca ion concentration was determined using FLIPR.

The target of experiment [2] is T2, TGR23-2 expressing CHO cells (Homo sapiens, UniProt Q6W5P4, N107I/Q344R).
T2 construct: the clones having the cDNA of TGR23-2, which is contained in pTB2174, were selected; expressed in transfected cells; host or cells: hamster CHO/dhfr- cells, vector pAKKO-111H (pAKKO-TGR23-2)
T2 sequence (Q6W5P4 1-371 N107I/Q344R): T1 sequence (Q6W5P4 1-371) with N107I, Q344R
Described as above. As to conditions: variety of concentrations. The method, then:
as §1

The target in experiment [3] is T1, TGR23-1 expressing CHO cells. The experiment is described as follows: Enhancing activity of intracellular cAMP production. The method, then:
The CHO/TGR23-2 cells prepared in Example 1 and selected in Example 2 were plated on 24-well plate at 7×10^4 cells/well and cultured for 48 hours. The cells were washed with αMEM medium (pH7.5) containing 0.2 mM 3-isobutyl-methylxanthine, 0.05% BSA and 20 mM HEPES (hereafter, αMEM medium (pH7.5) containing 0.2 mM 3-isobutyl-methylxanthine, 0.05% BSA and 20 mM HEPES may be referred to as a reaction buffer). Subsequently, 0.5 ml of the reaction buffer was added, and the solution was incubated for 30 minutes in the incubator. The reaction buffer was removed and 0.25 ml of the reaction buffer was freshly added to the cells. Then, the cells were admixed with a sample and 0.25 ml of the reaction buffer containing 2 μM forskoline, and incubated at 37° C. for 30 minutes. Intracellular cAMP was extracted by removing the reaction solution and adding 0.5 ml of the solution for cell lysis attached with cAMP EIA Kit (Applied Biosystems). The cAMP level in the extract was quantified with the same kit. Based on this measured value, a calculation was made using the following formula, and the enhancing/inhibiting activity for cAMP production was represented by % of control. The activity of the sample-adding group was calculated using a control value configured in each plate. % of control=(X−C)/(T−C)×100
X: The cAMP level in the sample-adding group
T: The means of the cAMP level in 3 wells of positive control (no sample, with stimulus of forskoline)
C: The means of the cAMP level in 3 wells of negative control (no sample, without stimulus of forskoline)
Human TGR23-2 ligand (1-20) prepared by the method described in Example 17 was administered to TGR23-1 expressing CHO cells and TGR23-2 expressing CHO cells at a variety of concentrations according to the method described in Example 3, and the enhancing activity of intracellular cAMP production was determined. […]
Background: cAMP levels reflect the balance of adenylyl cyclase and phosphodiesterase activity.

Experiment [4] has the same target. Put plainly: Enhancing activity of arachidonic acid metabolite release.

Residue numbers refer to the chain shown, from its start. Where no end group is shown, it is not given here.

With “SFRNGVGSGVKKTSFRRA [rat TGR23-2 ligand (1-18), Ser-Phe-Arg-Asn-Gly-Val-Gly-Ser-Gly-Val-Lys-Lys-Thr-Ser-Phe-Arg-Arg-Ala]”, the “increase of intracellular Ca ion concentration” value in experiment [1] and in experiment [2] was “clearly enhance an increase of intracellular Ca ion concentration” each time. Besides, in experiment [3] (no forskolin), the “enhancing activity of intracellular cAMP production” value was “enhance the intracellular cAMP production”. The “enhancing activity of arachidonic acid metabolite release” value in experiment [4] is “enhance the arachidonic acid metabolite release”.
Consider “SFRNGVGTGMKKTSFQRAKS [human TGR23-2 ligand (1-20)]”, for which the “increase of intracellular Ca ion concentration” value in experiment [1] and in experiment [2] was “enhances an increase of intracellular Ca ion concentration” each time. Moreover, the figures for the “enhancing activity of intracellular cAMP production” value in experiment [3] (no forskolin) and in experiment [3] (with forskolin) were “enhance the intracellular cAMP production” and “clearly enhances cAMP production”, respectively. The “enhancing activity of arachidonic acid metabolite release” value in experiment [4] is recorded as “enhance the arachidonic acid metabolite release”.
